Laboratory results published in PubChem BioAssay (NCI).
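1) Cells in 96-well plates. 2) Compound, 48 h, 5 concentrations. 3) Linear interpolation between surrounding doses. 4) Unreached endpoint = highest concentration. Definition used: TGI = concentration required for complete inhibition of growth.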

Key:
Assay in all cases: growth of human tumour cells (NCI), 48 h
[1] = tested on: RPMI-8226 leukemia
[2] = tested on: UO-31 renal
[3] = tested on: HCT-116 colon
[4] = tested on: HCC-2998 colon
[5] = tested on: SK-MEL-28 melanoma
[6] = tested on: HT29 colon
[7] = tested on: MDA-N
[8] = tested on: NCI-H226 lung
[9] = tested on: CAKI-1 renal
[10] = tested on: SF-539 CNS
[11] = tested on: MDA-MB-231 breast
[12] = tested on: MOLT-4 leukemia
[13] = tested on: SK-OV-3 ovarian
[14] = tested on: MALME-3M melanoma
[15] = tested on: HOP-92 NSCLC
[16] = tested on: UACC-257 melanoma
[17] = tested on: BT-549 breast
[18] = tested on: HL-60(TB) leukemia
[19] = tested on: OVCAR-8 ovarian
[20] = tested on: COLO 205 colon
[21] = tested on: OVCAR-5 ovarian
[22] = tested on: SN12C renal
[23] = tested on: M14 melanoma
[24] = tested on: DU-145 prostate
[25] = tested on: MDA-MB-435
[26] = tested on: NCI-H460 lung
[27] = tested on: SK-MEL-2 melanoma
[28] = tested on: T-47D breast
[29] = tested on: A498 renal
[30] = tested on: 786-0 renal
[31] = tested on: ACHN renal
[32] = tested on: EKVX NSCLC
[33] = tested on: KM12 colon
[34] = tested on: OVCAR-3 ovarian
[35] = tested on: SF-268 CNS
[36] = tested on: NCI/ADR-RES ovarian
[37] = tested on: LOX IMVI melanoma
[38] = tested on: UACC-62 melanoma
[39] = tested on: RXF 393 renal
[40] = tested on: CCRF-CEM leukemia
[41] = tested on: K-562 leukemia
[42] = tested on: NCI-H23 lung
[43] = tested on: SNB-19 CNS
[44] = tested on: SW-620 colon
[45] = tested on: SK-MEL-5 melanoma
[46] = tested on: HOP-62 NSCLC
[47] = tested on: HCT-15 colon
[48] = tested on: TK-10 renal
[49] = tested on: NCI-H522 lung
[50] = tested on: MCF7 breast
[51] = tested on: SNB-75 CNS
[52] = tested on: IGROV1 ovarian
[53] = tested on: HS 578T breast
[54] = tested on: OVCAR-4 ovarian
[55] = tested on: PC-3 prostate
[56] = tested on: SR leukemia
[57] = tested on: U251 CNS
[58] = tested on: A549 NSCLC
[59] = tested on: SF-295 CNS
[60] = tested on: LXFL 529 NSCLC
[61] = tested on: SNB-78 CNS
[62] = tested on: M19-MEL melanoma
[63] = tested on: DMS 273 small cell lung
[64] = tested on: KM20L2 colon
[65] = tested on: DMS 114 small cell lung

Structure (SMILES): C=CCOC1=C(OCC=C)C(C2COC(C)(C)O2)OC1=O (centres undefined)
- TGI [1]: > 100 µM
- TGI [2]: > 100 µM
- TGI [3]: > 100 µM
- TGI [4]: > 100 µM
- TGI [5]: > 100 µM
- TGI [6]: > 100 µM
- TGI [7]: > 100 µM
- TGI [8]: > 100 µM
- TGI [9]: 34.9 µM
- TGI [10]: > 100 µM
- TGI [11]: > 100 µM
- TGI [12]: > 100 µM
- TGI [13]: > 100 µM
- TGI [14]: > 100 µM
- TGI [15]: 83.3 µM
- TGI [16]: > 100 µM
- TGI [17]: > 100 µM
- TGI [18]: > 100 µM
- TGI [19]: > 100 µM
- TGI [20]: > 100 µM
- TGI [21]: > 100 µM
- TGI [22]: > 100 µM
- TGI [23]: > 100 µM
- TGI [24]: > 100 µM
- TGI [25]: > 100 µM
- TGI [26]: > 100 µM
- TGI [27]: > 100 µM
- TGI [28]: > 100 µM
- TGI [29]: > 100 µM
- TGI [30]: > 100 µM
- TGI [31]: > 100 µM
- TGI [32]: > 100 µM
- TGI [33]: > 100 µM
- TGI [34]: > 100 µM
- TGI [35]: > 100 µM
- TGI [36]: > 100 µM
- TGI [37]: > 100 µM
- TGI [38]: > 100 µM
- TGI [39]: > 100 µM
- TGI [40]: > 100 µM
- TGI [41]: > 100 µM
- TGI [42]: > 100 µM
- TGI [43]: > 100 µM
- TGI [44]: > 100 µM
- TGI [45]: > 100 µM
- TGI [46]: > 100 µM
- TGI [47]: > 100 µM
- TGI [48]: > 100 µM
- TGI [49]: 45.2 µM
- TGI [50]: > 100 µM
- TGI [51]: > 100 µM
- TGI [52]: > 100 µM
- TGI [53]: > 100 µM
- TGI [54]: > 100 µM
- TGI [55]: > 100 µM
- TGI [56]: > 100 µM
- TGI [57]: > 100 µM
- TGI [58]: > 100 µM
- TGI [59]: > 100 µM

Structure (SMILES): O=c1c2cc(Br)ccc2nc(-c2ccccc2Cl)n1NCC1(O)OCC(O)C(O)C1O (centres undefined)
- TGI [60]: > 100 µM
- TGI [1]: > 100 µM
- TGI [2]: > 100 µM
- TGI [3]: > 100 µM
- TGI [5]: > 100 µM
- TGI [6]: > 100 µM
- TGI [61]: > 100 µM
- TGI [62]: > 100 µM
- TGI [8]: > 100 µM
- TGI [9]: > 100 µM
- TGI [63]: > 100 µM
- TGI [12]: > 100 µM
- TGI [13]: > 100 µM
- TGI [14]: > 100 µM
- TGI [64]: > 100 µM
- TGI [16]: > 100 µM
- TGI [18]: > 100 µM
- TGI [19]: > 100 µM
- TGI [20]: > 100 µM
- TGI [21]: > 100 µM
- TGI [22]: > 100 µM
- TGI [23]: > 100 µM
- TGI [26]: > 100 µM
- TGI [27]: > 100 µM
- TGI [65]: > 100 µM
- TGI [29]: > 100 µM
- TGI [30]: > 100 µM
- TGI [31]: > 100 µM
- TGI [32]: > 100 µM
- TGI [33]: > 100 µM
- TGI [34]: > 100 µM
- TGI [35]: > 100 µM
- TGI [37]: > 100 µM
- TGI [38]: > 100 µM
- TGI [39]: > 100 µM
- TGI [40]: > 100 µM
- TGI [41]: > 100 µM
- TGI [42]: > 100 µM
- TGI [43]: > 100 µM
- TGI [44]: > 100 µM
- TGI [45]: > 100 µM
- TGI [46]: > 100 µM
- TGI [47]: > 100 µM
- TGI [49]: > 100 µM
- TGI [51]: > 100 µM
- TGI [54]: > 100 µM
- TGI [56]: > 100 µM
- TGI [57]: > 100 µM
- TGI [58]: > 100 µM
- TGI [59]: > 100 µM
